Measured values reported in patent US7214686B2, “Pharmaceutical compositions and methods for effecting dopamine release” (priority 1997, dated 2007).
Read-outs that look alike come from different tables or passages of the source.

What was measured:
[1] = test system: striatal synaptosomes (dopamine release); assay: cells; format: cell-based, rat; conditions: for EC50: read-out: Dopamine Release EC50
[2] = molecular target: T1, human muscle nAChR subtype (TE671/RD cells) (Homo sapiens, UniProt P02708+P07510+Q07001); assay: cell-based; format: cell-based; conditions: for Muscle Effect Ecmax: maximal activation as a percentage of that induced by L-nicotine
T1 construct: These cells express receptors that have pharmacological; endogenous in cells; host or cells: TE671/RD (human embryonal rhabdomyosarcoma)
Experimental: Cells were cultured in Dulbecco's modified Eagle's medium (Gibco/BRL) with 10% horse serum (Gibco/BRL), 5% fetal bovine serum (HyClone, Logan Utah), 1 mM sodium pyruvate, 4 mM L-Glutamine, and 50,000 units penicillin-streptomycin (Irvine Scientific). When cells were 80% confluent, they were plated to 6 well polystyrene plates (Costar). Experiments were conducted when the cells reached 100% confluency.
On the day of the experiment, growth media was gently removed from the well and growth media containing ^86Rubidium chloride (10^6 μCi/mL) was added to each well. Cells were incubated at 37° C. for a minimum of 3 h. […] Next, cells were exposed to either 100 μM of test compound, 100 μM of L-nicotine (Acros Organics) or buffer alone for 4 min. Following the exposure period, the supernatant containing the released ^86Rb^+ was removed and transferred to scintillation vials. Scintillation fluid was added and released radioactivity was measured by liquid scintillation counting.
Within each assay, each point had 2 replicates, which were averaged. The amount of ^86Rb^+ release was compared to both a positive control (100 μM L-nicotine) and a negative control (buffer alone) to determine the percent release relative to that of L-nicotine.
(§1) When appropriate, dose-response curves of test compound were determined. The maximal activation for individual compounds (Emax) was determined as a percentage of the maximal activation induced by L-nicotine. The compound concentration resulting in half maximal activation (EC50) of specific ion flux was also determined.

[3] = molecular target: T2, rat ganglionic nAChR subtype (PC12 cells) (Rattus norvegicus, UniProt P04757+P12392); assay: cell-based; format: cell-based
T2 construct: These cells express ganglion-like nAChRs; endogenous in cells; host or cells: PC12 (rat pheochromocytoma)
Experimental: Activation of rat ganglion nAChRs was established on the pheochromocytoma clonal line PC12, which is a continuous clonal cell line of neural crest origin, derived from a tumor of the rat adrenal medulla.
Cells were cultured in Dulbecco's modified Eagle's medium (Gibco/BRL) with 10% horse serum (Gibco/BRL), 5% fetal bovine serum (HyClone, Logan Utah), 1 mM sodium pyruvate, 4 mM L-Glutamine, and 50,000 units penicillin-streptomycin (Irvine Scientific). When cells were 80% confluent, they were plated to 6 well Nunc plates (Nunclon) and coated with 0.03% poly-L-lysine (Sigma, dissolved in 100 mM boric acid). Experiments were conducted when the cells reached 80% confluency.
On the day of the experiment, growth media was gently removed from the well and growth media containing ^86Rubidium chloride (10^6 μCi/mL) was added to each well. Cells were incubated at 37° C. for a minimum of 3 h. […] Next, cells were exposed to either 100 μM of test compound, 100 μM of nicotine or buffer alone for 4 min. Following the exposure period, the supernatant containing the released ^86Rb^+ was removed and transferred to scintillation vials. Scintillation fluid was added and released radioactivity was measured by liquid scintillation counting.
Within each assay, each point had 2 replicates, which were averaged. The amount of ^86Rb^+ release was compared to both a positive control (100 μM nicotine) and a negative control (buffer alone) to determine the percent release relative to that of L-nicotine.
as §1

α4β2 nAChR subtype = molecular target: T3, α4β2 nAChR subtype (Rattus norvegicus, UniProt P09483+P12390); assay: biochemical; conditions: inhibition of [3H]nicotine binding, rat cerebral cortex membranes
T3 construct: The cerebral cortex was removed and placed in 20 volumes (weight:volume) of ice-old preparative buffer; from tissue; host or cells: rat cerebral cortex membranes

[4] = maximal activation as a percentage of that induced by L-nicotine
[5] = rat striatal synaptosomes, [3H]dopamine release
[6] = 86Rb+ efflux, read-out: Ganglion Effect EC50

T2 sequence (P04757 26-499): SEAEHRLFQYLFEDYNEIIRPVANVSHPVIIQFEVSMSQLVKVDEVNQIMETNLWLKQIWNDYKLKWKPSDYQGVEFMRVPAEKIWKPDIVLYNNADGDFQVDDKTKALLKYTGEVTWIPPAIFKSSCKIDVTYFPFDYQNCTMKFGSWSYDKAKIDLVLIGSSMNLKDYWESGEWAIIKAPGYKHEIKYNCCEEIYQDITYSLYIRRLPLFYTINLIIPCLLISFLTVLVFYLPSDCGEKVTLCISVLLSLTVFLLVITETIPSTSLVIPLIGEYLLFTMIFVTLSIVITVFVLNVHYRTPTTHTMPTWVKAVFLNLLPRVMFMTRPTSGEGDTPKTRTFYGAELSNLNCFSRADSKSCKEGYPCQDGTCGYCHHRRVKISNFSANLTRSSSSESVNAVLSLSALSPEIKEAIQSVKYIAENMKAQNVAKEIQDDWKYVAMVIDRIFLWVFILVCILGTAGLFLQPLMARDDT
T2 sequence (P12392 21-495): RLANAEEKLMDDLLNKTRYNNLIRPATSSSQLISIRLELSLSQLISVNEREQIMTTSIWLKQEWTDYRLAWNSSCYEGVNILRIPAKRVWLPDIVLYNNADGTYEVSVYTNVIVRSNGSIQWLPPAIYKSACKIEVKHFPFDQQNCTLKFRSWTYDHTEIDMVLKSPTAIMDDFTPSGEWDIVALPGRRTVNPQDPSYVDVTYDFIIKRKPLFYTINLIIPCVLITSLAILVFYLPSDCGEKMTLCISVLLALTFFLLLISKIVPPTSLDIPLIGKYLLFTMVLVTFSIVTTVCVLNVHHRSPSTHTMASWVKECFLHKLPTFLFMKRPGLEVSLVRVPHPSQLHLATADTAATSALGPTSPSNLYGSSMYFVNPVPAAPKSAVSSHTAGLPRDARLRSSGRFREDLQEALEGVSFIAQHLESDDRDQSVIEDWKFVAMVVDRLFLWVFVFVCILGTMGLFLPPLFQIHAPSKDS
T1 sequence (P02708 21-457): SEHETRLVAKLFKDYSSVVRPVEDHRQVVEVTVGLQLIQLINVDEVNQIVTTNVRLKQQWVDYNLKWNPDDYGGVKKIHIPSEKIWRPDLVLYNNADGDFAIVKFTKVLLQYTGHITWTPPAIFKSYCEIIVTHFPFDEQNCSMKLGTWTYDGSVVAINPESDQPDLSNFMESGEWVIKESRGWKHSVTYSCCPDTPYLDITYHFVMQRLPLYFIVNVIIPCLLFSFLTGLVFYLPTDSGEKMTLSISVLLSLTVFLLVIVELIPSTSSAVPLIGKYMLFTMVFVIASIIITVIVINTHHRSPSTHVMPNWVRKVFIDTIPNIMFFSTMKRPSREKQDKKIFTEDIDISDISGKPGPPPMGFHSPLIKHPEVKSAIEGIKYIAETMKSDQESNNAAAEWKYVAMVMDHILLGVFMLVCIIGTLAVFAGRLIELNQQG
T1 sequence (P11230 24-501 partner): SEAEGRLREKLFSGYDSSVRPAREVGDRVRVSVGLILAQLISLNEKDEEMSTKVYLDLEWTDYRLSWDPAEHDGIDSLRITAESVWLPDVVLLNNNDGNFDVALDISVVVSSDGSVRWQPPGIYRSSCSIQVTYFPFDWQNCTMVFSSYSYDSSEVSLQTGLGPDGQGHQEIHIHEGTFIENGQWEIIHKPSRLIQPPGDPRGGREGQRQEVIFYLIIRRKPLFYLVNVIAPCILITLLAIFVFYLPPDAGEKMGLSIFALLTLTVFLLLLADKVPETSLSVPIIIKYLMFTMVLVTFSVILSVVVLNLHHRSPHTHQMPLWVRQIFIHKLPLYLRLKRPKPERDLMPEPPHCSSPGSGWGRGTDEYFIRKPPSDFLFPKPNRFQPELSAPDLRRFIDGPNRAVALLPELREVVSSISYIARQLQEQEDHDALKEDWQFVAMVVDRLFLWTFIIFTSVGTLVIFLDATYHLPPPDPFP
T1 sequence (Q07001 22-517): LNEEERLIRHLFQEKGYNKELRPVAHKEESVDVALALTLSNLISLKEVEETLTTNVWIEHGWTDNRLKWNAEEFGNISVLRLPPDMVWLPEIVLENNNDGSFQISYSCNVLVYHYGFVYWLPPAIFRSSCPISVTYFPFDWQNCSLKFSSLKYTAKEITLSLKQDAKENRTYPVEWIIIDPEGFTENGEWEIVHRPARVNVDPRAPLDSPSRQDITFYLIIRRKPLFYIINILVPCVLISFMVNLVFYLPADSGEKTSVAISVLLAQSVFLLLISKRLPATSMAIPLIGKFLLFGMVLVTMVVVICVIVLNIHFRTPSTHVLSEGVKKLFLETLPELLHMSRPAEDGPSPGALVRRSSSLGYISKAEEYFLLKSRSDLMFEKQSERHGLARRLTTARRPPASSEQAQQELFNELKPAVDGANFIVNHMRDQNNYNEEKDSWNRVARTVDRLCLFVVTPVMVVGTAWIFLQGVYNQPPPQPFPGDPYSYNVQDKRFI
T1 sequence (P07510 23-517): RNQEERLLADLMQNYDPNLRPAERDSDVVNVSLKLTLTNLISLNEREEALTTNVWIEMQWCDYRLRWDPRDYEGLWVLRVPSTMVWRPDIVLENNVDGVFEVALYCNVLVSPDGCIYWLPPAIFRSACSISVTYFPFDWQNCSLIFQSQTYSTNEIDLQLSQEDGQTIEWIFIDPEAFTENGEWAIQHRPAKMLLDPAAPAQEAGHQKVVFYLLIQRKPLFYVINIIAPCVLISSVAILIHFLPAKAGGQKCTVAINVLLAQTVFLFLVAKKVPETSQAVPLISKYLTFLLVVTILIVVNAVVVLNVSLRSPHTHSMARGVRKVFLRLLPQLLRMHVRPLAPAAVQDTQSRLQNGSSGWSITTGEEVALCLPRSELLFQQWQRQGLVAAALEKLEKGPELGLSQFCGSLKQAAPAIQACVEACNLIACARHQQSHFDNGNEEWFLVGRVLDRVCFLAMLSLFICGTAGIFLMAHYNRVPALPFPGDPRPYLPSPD
T3 sequence (P09483 31-630): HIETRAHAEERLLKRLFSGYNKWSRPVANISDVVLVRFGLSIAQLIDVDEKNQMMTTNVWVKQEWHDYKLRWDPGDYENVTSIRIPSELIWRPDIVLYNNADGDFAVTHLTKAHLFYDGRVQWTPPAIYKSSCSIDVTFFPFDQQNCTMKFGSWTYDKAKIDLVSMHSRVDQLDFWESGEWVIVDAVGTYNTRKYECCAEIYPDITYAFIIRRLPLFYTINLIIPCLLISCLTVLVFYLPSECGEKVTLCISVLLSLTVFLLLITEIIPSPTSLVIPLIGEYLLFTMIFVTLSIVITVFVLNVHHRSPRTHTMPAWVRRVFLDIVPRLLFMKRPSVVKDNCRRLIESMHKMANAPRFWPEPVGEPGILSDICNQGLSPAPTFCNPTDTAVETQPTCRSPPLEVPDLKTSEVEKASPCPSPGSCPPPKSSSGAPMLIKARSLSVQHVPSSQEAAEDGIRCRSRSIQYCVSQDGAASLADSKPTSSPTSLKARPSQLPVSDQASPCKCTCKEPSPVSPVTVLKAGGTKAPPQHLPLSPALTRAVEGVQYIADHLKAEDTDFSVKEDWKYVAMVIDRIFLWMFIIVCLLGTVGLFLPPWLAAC
T3 sequence (P12390 25-500): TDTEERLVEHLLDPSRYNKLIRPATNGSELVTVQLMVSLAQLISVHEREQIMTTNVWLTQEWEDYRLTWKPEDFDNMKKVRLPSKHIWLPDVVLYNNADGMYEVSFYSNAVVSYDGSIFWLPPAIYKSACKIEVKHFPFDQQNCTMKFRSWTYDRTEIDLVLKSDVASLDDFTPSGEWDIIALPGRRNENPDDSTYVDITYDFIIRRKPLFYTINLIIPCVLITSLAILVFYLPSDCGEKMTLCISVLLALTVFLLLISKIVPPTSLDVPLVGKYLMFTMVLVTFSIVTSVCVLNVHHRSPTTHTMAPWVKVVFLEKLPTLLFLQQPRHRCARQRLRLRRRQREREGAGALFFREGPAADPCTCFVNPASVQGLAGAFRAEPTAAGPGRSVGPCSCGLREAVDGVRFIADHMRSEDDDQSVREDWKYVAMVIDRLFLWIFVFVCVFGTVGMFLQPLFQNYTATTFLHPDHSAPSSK

| SMILES | Dopamine Release Ecmax [1, 4] | EC50 [1, 5] [nM] | EC50 ([2]; 86Rb+ efflux, TE671/RD cells, read-out: Muscle Effect EC50) [nM] | Muscle Effect Ecmax [2] | EC50 [3, 6] [nM] | Ganglion Effect Ecmax [3, 4] | logP (physchem) | EC50 ([1]; Rattus norvegicus) [nM] | EC50 [2] [nM] | EC50 [3] [nM] | Dopamine Release Ecmax [1] | Ganglion Effect Ecmax [3] | Ki (α4β2 nAChR subtype) [nM] | amounts causing muscle effects relative to those required to cause dopamine release ([2]; muscle effects vs dopamine release) | amounts causing effects upon ganglia relative to those required to cause dopamine release ([3]; ganglia effects vs dopamine release) |
| --- | --- | --- | --- | --- | --- | --- | --- | --- | --- | --- | --- | --- | --- | --- | --- |
| c1cncc(C2CC3CCN2CC3)c1 (racemic) [Sample No. 1, (+/−)-2-(3-pyridyl)-1-azabicyclo[2.2.2]octane] | 40 | 2 | 59 | 110 | 1100 | 85 | 1.26 |  |  |  |  |  |  |  |  |
| Brc1cncc(C2CC3CCN2CC3)c1 (racemic) [Sample No. 2, (+/−)-2-(5-bromo-3-pyridyl)-1-azabicyclo[2.2.2]octane] | 43 |  |  | 133 |  | 106 | 2.05 | 2 | 3000 | 3000 |  |  |  |  |  |
| c1cncc([C@H]2C[C@@H]3CCN2C3)c1 (relative stereo) [Sample No. 3, exo 2-(3-pyridyl)-1-azabicyclo[2.2.1]heptane] | 130 |  |  | 130 |  | 100 | 0.94 | 6 |  | 150 |  |  |  |  |  |
| c1cncc([C@@H]2C[C@@H]3CCN2C3)c1 (relative stereo) [Sample No. 4, endo-2-(3-pyridyl)-1-azabicyclo[2.2.1]heptane] | 114 |  |  | 130 |  | 100 | 0.94 | 33 |  | 150 |  |  |  |  |  |
| CN1CCC[C@H]1c1cccnc1 [C-1, (S)-(−)-nicotine, reference compound] |  |  |  |  |  |  |  |  |  |  | 100 | 100 |  |  |  |
| c1cncc(C2C3CCN2CC3)c1 (stereo not drawn) [Sample No. 5, 7-(3-pyridyl)-1-azabicyclo[2.2.1]heptane] | 93 |  |  | 130 |  | 120 | 0.93 | 4 |  |  |  |  | 7 |  |  |
| Cl.Cl.Cl.Nc1cncc(C2CC3CCN2CC3)c1 (stereo not drawn) [Sample No. 6, 2-(5-amino-3-pyridyl)-1-azabicyclo[2.2.2]octane trihydrochloride] | 43 | 7 |  | 100 | 10000 | 75 | 0.48 |  |  |  |  |  | 2.6 | many times | many times |
| CCOc1cncc(C2CC3CCN2CC3)c1.Cl.Cl (stereo not drawn) [Sample No. 7, 2-(5-ethoxy-3-pyridyl)-1-azabicyclo[2.2.2]octane dihydrochloride] | 40 |  |  | 137 |  | 86 | 1.82 | 5 |  | 10000 |  |  |  |  |  |
| CC(C)Oc1cncc(C2CC3CCN2CC3)c1.Cl.Cl (stereo not drawn) [Sample No. 8, 2-(5-isopropoxy-3-pyridyl)-1-azabicyclo[2.2.2]octane dihydrochloride] |  |  |  |  |  | 94 | 1.76 |  |  |  |  |  |  |  |  |
